From patent publication US8883170B2 (priority 2008, dated 2014)
Like-named read-outs stand apart in the source and are kept apart here.

How the values were obtained:
[1] = test system: recombinant hemagglutinin antigen (rHA) of influenza A; format: in vivo; conditions: compound 100 μg + rHA 5 μg; for Anti-rHA Titer IgG1 / Anti-rHA Titer IgG2a / Anti-rHA Titer IgG2b: s.c. Days 1 and 22, serum Day 43; for Anti-rHA Titer Total IgG: s.c. Days 1 and 22, serum Day 43, BALB/c mice
[2] = test system: spleen cells; assay: Immunogenicity study with rHA: lymphoproliferation of restimulated spleen cells (3H-TdR incorporation); format: in vivo, BALB/c mice; conditions: mice immunized with compound 100 μg + rHA 5 μg; for Lymphoproliferation Con A: restimulated with concanavalin A 4 days; for Lymphoproliferation Medium: restimulated with medium (background) 4 days; for Lymphoproliferation rHA: restimulated with rHA 4 days
[3] = test system: BALB/c mice; conditions: for overall toxicity conclusion: acute toxicity study in mice; for 7-Day Survival Males: male mice; for observations in treated animals: mice
[4] = test system: humans; conditions: in humans; cited from earlier work
[5] = single s.c. dose 250 μg, female mice
[6] = single s.c. dose 500 μg, female mice
[7] = single s.c. dose 1 mg, female mice
[8] = single s.c. dose 2 mg, female mice
[9] = single s.c. dose 4 mg in DMSO, female mice

CC1(C)CC[C@]2(C(=O)O)CC[C@]3(C)C(=CC[C@@H]4[C@@]5(C)CC[C@H](O)[C@@](C)(C=O)[C@@H]5CC[C@]43C)[C@@H]2C1 [Gypsogenin, gypsogenin, reference compound]
stability on storage (TLC, purity checked periodically) (kept in cold (below −4° C.), 1 year): no change was observed | stability on storage (TLC) (room temperature storage): decomposition was seen | Anti-rHA Titer IgG1 [1]: 3220 | Anti-rHA Titer IgG2a [1]: 348 | Anti-rHA Titer IgG2b [1]: 1118 | Anti-rHA Titer Total IgG [1]: 1136 | Lymphoproliferation Con A [2]: 321,750 | Lymphoproliferation Medium [2]: 356 | Lymphoproliferation rHA [2]: 8507 | overall toxicity conclusion [3]: general lack of toxicity | 7-Day Survival Females [3, 5]: 100% | 7-Day Survival Males ([3]; single s.c. dose 250 μg): 100% | 7-Day Survival Females [3, 6]: 100% | 7-Day Survival Males ([3]; single s.c. dose 500 μg): 100% | 7-Day Survival Females [3, 7]: 100% | 7-Day Survival Males ([3]; single s.c. dose 1 mg): 100% | 7-Day Survival Females [3, 8]: 100% | 7-Day Survival Males ([3]; single s.c. dose 2 mg): 100% | 7-Day Survival Females [3, 9]: 100% | 7-Day Survival Males ([3]; single s.c. dose 4 mg in DMSO): 100% | observations in treated animals ([3]; single s.c. injection): lethargy, hair loss, and skin irritation at the injection site

QS-21
dose associated with significant local reactions [4]: ≥ 200 µg

CCCCCCCCCCCCNC(=O)C12CCC(C)(C)CC1C1=CCC3C4(C)CCC(O)C(C)(C=O)C4CCC3(C)C1(C)CC2 (stereo not shown) [Dodecyl genin, dodecylamide derivative of gypsogenin]
Anti-rHA Titer IgG1 [1]: 20,984 | Anti-rHA Titer IgG2a [1]: 6600 | Anti-rHA Titer IgG2b [1]: 1466 | Anti-rHA Titer Total IgG [1]: 3418 | Lymphoproliferation Con A [2]: 278,393 | Lymphoproliferation Medium [2]: 772 | Lymphoproliferation rHA [2]: 30,402 | overall toxicity conclusion [3]: general lack of toxicity | 7-Day Survival Females [3, 5]: 100% | 7-Day Survival Males ([3]; single s.c. dose 250 μg): 100% | 7-Day Survival Females [3, 6]: 100% | 7-Day Survival Males ([3]; single s.c. dose 500 μg): 100% | 7-Day Survival Females [3, 7]: 100% | 7-Day Survival Males ([3]; single s.c. dose 1 mg): 100% | 7-Day Survival Females [3, 8]: 100% | 7-Day Survival Males ([3]; single s.c. dose 2 mg): 100% | 7-Day Survival Females [3, 9]: 100% | 7-Day Survival Males ([3]; single s.c. dose 4 mg in DMSO): 100% | observations in treated animals ([3]; single s.c. injection): lethargy, hair loss, and skin irritation at the injection site

CCCCCCCCCCCCNC(=O)[C@]12CCC(C)(C)C[C@H]1C1=CCC3[C@@]4(C)CC[C@H](OC5OC(CO)C(O)C(O)C5O)[C@@](C)(C=O)C4CC[C@@]3(C)[C@]1(C)CC2 (stereo partly shown) [Saponin 1]
Anti-rHA Titer IgG1 [1]: 29,100 | Anti-rHA Titer IgG2a [1]: 446 | Anti-rHA Titer IgG2b [1]: 2008 | Anti-rHA Titer Total IgG [1]: 5130 | Lymphoproliferation Con A [2]: 232,769 | Lymphoproliferation Medium [2]: 268 | Lymphoproliferation rHA [2]: 3696 | overall toxicity conclusion [3]: general lack of toxicity | 7-Day Survival Females [3, 5]: 100% | 7-Day Survival Males ([3]; single s.c. dose 250 μg): 100% | 7-Day Survival Females [3, 6]: 100% | 7-Day Survival Males ([3]; single s.c. dose 500 μg): 100% | 7-Day Survival Females [3, 7]: 100% | 7-Day Survival Males ([3]; single s.c. dose 1 mg): 100% | 7-Day Survival Females [3, 8]: 80% | 7-Day Survival Males ([3]; single s.c. dose 2 mg): 100% | 7-Day Survival Females [3, 9]: 80% | 7-Day Survival Males ([3]; single s.c. dose 4 mg in DMSO): 100% | maximum tolerated dose (MTD) for females ([3]; single s.c. injection, female mice): 1 mg | observations in treated animals ([3]; single s.c. injection): lethargy, hair loss, and skin irritation at the injection site
